Experiments:
[1] = test system: ribociclib-sensitive cell lines; experiment: Cell viability screen across ribociclib-sensitive cell lines; assay type: cell-based; details: 500 μM compound
Procedure: All cells were maintained as a monolayer in exponential growth at 37° C. in a 5% CO2 atmosphere. MCF-7 and HepG2 were maintained in Dulbecco's Modified Eagle Medium (DMEM, Gibco) supplemented with 10% (v/v) fetal bovine serum (FBS, Seradigm). HT-29 and SW-48 were maintained in RPMI 1640 Medium (Gibco) supplemented with 10% FBS.
All cells dosed with oxaziridine were treated using a 2% DMSO/media solution. Oxaziridines were dissolved in DMSO and used the same day as treatment. Media was removed from cells and replaced with fresh media containing oxaziridine in DMSO for a final concentration of 2% DMSO. Control wells were treated with 2% DMSO/media. Cells were incubated at 37° C. in a 5% CO2 atmosphere.
Commercially available Cell Counting Kit-8 Assay (Dojindo) was used to investigate cell viability after treatment with oxaziridines. Cells were plated in 96-well plates (black/clear bottom; Thermo Fisher) and grown to 75% confluency. Media was removed and replaced with media containing 2% DMSO and indicated compound concentration. Cells were allowed to incubate 24 h. To assess viability, media was removed and replaced with 100 μL media containing 10% CCK-8 assay solution. Plates were incubated at 37° C. in a 5% CO2 atmosphere for 1-4 h until an orange color was visible. Viability was quantified via plate reader (monofilter) with absorption at 450 nm. […]

CDK4 = experiment: 2D gel electrophoresis western blot of CDK4 T172 phosphorylation in MCF-7; assay type: cell-based, human; details: MCF-7 cells, 2D SDS-PAGE, spot 3 normalized to spot 1
Procedure: Serum-synchronized MCF-7 cells were treated with compound according to method outlined. Cells were monitored by eye for cell death and harvested once high-dose cells were round but not detached, about 2 hours. Media was removed and cells washed with HBSS. Trypsin was added to detach cells. Cells were transferred to a falcon tube containing 7 mL of complete DMEM and centrifuged at 1200 rpm for 2 min. Supernatant discarded and pellet gently resuspended in 1 mL PBS and transferred to an Eppendorf tube. Sample was spun once more, after which the pellet was quickly rinsed with ice cold MQ and spun a final time. Pellet was aspirated, flash frozen with LN2, and stored at −80° C.
SCell pellets were solubilized in cold 30 mM Tris buffer pH 8.5 containing 7 M urea, 2 M thiourea and 4% CHAPS with continuous vortexing until unfrozen and then kept agitated for 20 min. After centrifugation at 15,700 g for 10 min at 4° C., proteins were quantified. An equal volume of 2-D-sample buffer (7 M urea, 2 M thiourea, 2% CHAPS, 0.4% 3-10 Pharmalytes, and 0.4% DTT) was added to samples normalized to 150 μg proteins. […] The proteins were detected using Western Lightning Plus ECL (Perkin Elmer) and viewed in Fusion FX gel documentation system using the Solo7S camera (Vilber Lourmat, France).

O=C(N1CC2COCC2C1)N1OC1c1ccccc1 (centres unmarked) [Compound 148]
cell viability of ribociclib-sensitive cell lines [1]: decrease cell viability | T172 phosphorylation status on CDK4 (CDK4): diminish T172 phosphorylation status on CDK4 in MCF-7 cells in a dose-dependent manner

Reference: patent publication US20250206708A1, “AN OXAZIRIDINE PLATFORM FOR TARGETING FUNCTIONAL ALLOSTERIC METHIONINE SITES” (Novartis AG, priority 2022, published 2025)
